Experimental data taken from patent US11351129B2, “Systems and methods for treating vitiligo” (Transdermal Biotechnology, Inc., priority 2016, dated 2022).

System: vitiligo depigmented area of skin
Test: Two month study of topically applied sodium pyruvate in subjects with vitiligo (photographs, DSMII Colorimeter erythema and melanin, clinical evaluations)
Format: in vivo, human
Conditions: for average erythema colorimetric measurement: DSMII Colorimeter, 0.2% phase
Excerpt: Subjects were 18 years of age and older. A medical history form and this consent statement were provided to them to read, review, and complete. They had no other systemic or dermatological disease present that would interfere with the integrity of this study. Subjects were in good health as determined by the medical history. After all their questions were answered and they decided to participate in the study they were asked to sign the informed consent statement. 5 subjects were studied as follows:
Subjects were dispensed two (2) tubes of test products. One was labeled HNC 180-100-A (0.05%) and the other labeled as HNC 180-100-B (0.1%). Subjects were instructed to use these products sparingly and make applications twice daily, morning, and evening. Applications were made only to the areas designated for treatment.
The sodium pyruvate dosage was increased to 0.2% after the initial eight week study was completed. Subjects were dispensed HNC-180-12 for this phase.
This was a two (2) month study that involved five (5) subjects. Test sessions lasted approximately ½ hour per visit. There were […] scheduled visits. The first was on Day 1 (Baseline), and then at 1, 2, 4, 6 and 8 weeks.
At the end of the 8 weeks all subjects were invited to continue for further study. Four of the subjects elected to continue.
Prior to any study procedures being performed subjects were given an informed consent statement to read, review, and sign. A body map assessment of the vitiligo depigmented area was made and the target areas of treatment were photographed for the baseline record. Colorimetric measurements of the skin were done employing a DSMII Colorimeter. This instrument produced a read-out of erythema and melanin based on the light absorption characteristics of human skin. Subjects reported to the clinic for additional photographs, colorimeter measurements, and clinical evaluations at each scheduled visit.

average erythema colorimetric measurement (week 12): 15.80 arbitrary units | average erythema colorimetric measurement (week 16): 15.71 arbitrary units
SMILES: CC(=O)C(=O)[O-].[Na+] [sodium pyruvate]
increase in pigment in vitiliginous areas, subjects showing it (5 subjects with vitiligo, topical, twice daily, 0.05% and 0.1% for 8 weeks, then 0.2%): 4 out of the 5 | irritation (concentration of sodium pyruvate increased to 0.2% after 8 weeks, topical): increased irritation | appearance of vitiligo (topically applied): effective in reducing the appearance of vitiligo
